Here are results for two molecules from publication PMC2862721, “The Tegument of the Human Parasitic Worm Schistosoma mansoni as an Excretory Organ: The Surface Aquaporin SmAQP Is a Lactate Transporter” (PLoS ONE, 2010).

For one data set, the target named is T1, SmAQP (Schistosoma mansoni, UniProt C4PYI6).
T1 construct: gene AQP1; 304 aa membrane protein
T1 sequence (C4PYI6 1-304): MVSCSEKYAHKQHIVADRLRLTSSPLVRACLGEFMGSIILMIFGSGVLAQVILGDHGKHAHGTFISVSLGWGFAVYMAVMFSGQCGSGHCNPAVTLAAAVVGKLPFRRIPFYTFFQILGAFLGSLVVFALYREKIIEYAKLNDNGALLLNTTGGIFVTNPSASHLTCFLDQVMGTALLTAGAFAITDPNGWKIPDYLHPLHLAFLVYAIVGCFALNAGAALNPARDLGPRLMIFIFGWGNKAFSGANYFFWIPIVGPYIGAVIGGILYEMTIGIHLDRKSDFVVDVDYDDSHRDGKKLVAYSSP
Kind of data set: inhibition of radiolabelled lactate uptake in Xenopus oocytes, variable-slope fit. It is filed as cell-based. The conditions noted are these: read-out: Ki (half maximal inhibitory concentration); Ki50.

Substrate in data set [1]: C[C@H](O)C(=O)O
Kind of data set: cells, lysate or membranes. It is filed as cell-based, Schistosoma mansoni. The conditions noted are these: 0.1-100 mM lactate; labelled compound; non-injected oocyte values subtracted.

With `O=C(CCc1ccc(O)cc1)c1c(O)cc(O)cc1O` [phloretin], the IC50 on SmAQP amounted to 22 µM.

B1: SmAQP (Schistosoma mansoni) (protein)
chain: MVSCSEKYAHKQHIVADRLRLTSSPLVRACLGEFMGSIILMIFGSGVLAQVILGDHGKHAHGTFISVSLGWGFAVYMAVMFSGQCGSGHCNPAVTLAAAVVGKLPFRRIPFYTFFQILGAFLGSLVVFALYREKIIEYAKLNDNGALLLNTTGGIFVTNPSASHLTCFLDQVMGTALLTAGAFAITDPNGWKIPDYLHPLHLAFLVYAIVGCFALNAGAALNPARDLGPRLMIFIFGWGNKAFSGANYFFWIPIVGPYIGAVIGGILYEMTIGIHLDRKSDFVVDVDYDDSHRDGKKLVAYSSP
notes: 304 aa membrane protein
Take B1: in data set [1], the Km is 41 ± 5.8 mM.
